Experimental data published in patent US9067190B2, “Method for loading amphiphile particles with active agents” (CAMURUS AB, priority 2003, dated 2015).

Key:
[1] = Effect of heat treatment on carrier-bound fraction of octreotide (loading system 3); format: physicochemical; conditions: 200 μg/ml octreotide, 5% amphiphile analogue of loading system 3
Method: Octreotide at a concentration of 200 μg/ml was added to 5% amphiphile analogues of loading system 3 (water content 95%). One set of samples were equilibrated at room temperature for 1 day, while another set was autoclaved at 125° C. for 20 minutes. The ocreotide concentration was determined by HPLC using a size exclusion column coupled to a UV detector.

[2] = Higher loading of progesterone by heat treatment (GMO/oleic acid/Lutrol F127 cubic particles); format: physicochemical
Method: Pre-formulations were prepared, including the fatty acid oleic acid, by the following method. • a) An initial melt was prepared containing GMO (85.5%), oleic acid (4.5%) and Lutrol F127 (10%). To 9 g of water under mechanical stirring was added 1 g of the molten mixture to form a coarse dispersion. • b) The coarse dispersion was homogenised with a microfluidiser at 345 bar. • c) The dispersion was heated to 120° C. for 20 minutes and cooled to room temperature.
The steroid hormone progesterone was incubated with the cubic particles formed in steps a) to c), at room temperature. The equilibrium loading level was 3% by weight.
The above method was repeated by the active agent progesterone was included in the aqueous phase prior to the homogenisation and heat treatment steps. The loading level was again examined and established to be 18 wt %. The effect upon the particle size distribution was minimal.
The composition with 18 wt % progesterone generated above was stored at room temperature for 14 days.

Effect upon the particle size distribution ([2]; heat treatment loading of progesterone)	Loading level ([2]; progesterone in aqueous phase prior to homogenisation and heat treatment (120° C., 20 minutes))	Equilibrium loading level ([2]; progesterone incubated with preformed cubic particles at room temperature)	SMILES	% bound octreotide ([1]; 1 day at room temperature)	% bound octreotide ([1]; After Autoclavation 20 min (125° C.))
			C[C@@H](O)[C@@H]1NC(=O)[C@H](CCCCN)NC(=O)[C@@H](Cc2c[nH]c3ccccc23)NC(=O)[C@H](Cc2ccccc2)NC(=O)[C@@H](NC(=O)[C@H](N)Cc2ccccc2)CSSC[C@@H](C(=O)N[C@H](CO)[C@@H](C)O)NC1=O [octreotide]	18.07%	30.04%
minimal	18 wt %	3 % by weight	CC(=O)[C@H]1CC[C@H]2[C@@H]3CCC4=CC(=O)CC[C@]4(C)[C@H]3CC[C@]12C [progesterone]		
